# Data reported in the kinase profiling compilation of Christmann-Franck et al. (2016).
# Several values for one entry are separate records, joined by “and”; a condition that tells them apart may be missing. Equal values may be shown once.
# How the values were obtained:
# Assay in all cases: KINOMEscan competition binding
# Details in all cases: compound 10.0 µM
# PTK2B (human) = PTK2B (human) (UniProt Q14289)
# PIM2 (human) = PIM2 (human) (UniProt Q9P1W9)
# [1] = system: KIT (human), P10721 [D816H]
# TXK (human) = TXK (human) (UniProt P42681)
# CAMK4 (human) = CAMK4 (human) (UniProt Q16566)
# NEK2 (human) = NEK2 (human) (UniProt P51955)
# STK10 (human) = STK10 (human) (UniProt O94804)
# BLK (human) = BLK (human) (UniProt P51451)
# PI4KB (human) = PI4KB (human) (UniProt Q9UBF8)
# SRMS (human) = SRMS (human) (UniProt Q9H3Y6)
# SRMS (human), sequence (Q9H3Y6 whole entry, looked up): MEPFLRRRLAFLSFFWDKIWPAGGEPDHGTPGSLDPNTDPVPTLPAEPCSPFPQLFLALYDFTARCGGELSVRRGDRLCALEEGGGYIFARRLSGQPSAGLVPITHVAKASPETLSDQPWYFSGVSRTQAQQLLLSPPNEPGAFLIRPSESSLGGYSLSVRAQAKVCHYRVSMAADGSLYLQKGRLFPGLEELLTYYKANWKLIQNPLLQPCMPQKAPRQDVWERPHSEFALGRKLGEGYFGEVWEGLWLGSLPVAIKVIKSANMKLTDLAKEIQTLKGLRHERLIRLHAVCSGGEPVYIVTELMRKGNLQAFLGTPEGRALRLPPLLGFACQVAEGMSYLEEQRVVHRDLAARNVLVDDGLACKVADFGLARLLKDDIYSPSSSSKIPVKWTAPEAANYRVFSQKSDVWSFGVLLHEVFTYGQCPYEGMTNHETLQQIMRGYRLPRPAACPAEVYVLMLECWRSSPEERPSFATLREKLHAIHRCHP
# TYRO3 (human) = TYRO3 (human) (UniProt Q06418)
# [2] = system: PIK3CA (human), P42336 [H1047L]
# TAOK1 (human) = TAOK1 (human) (UniProt Q7L7X3)
# MYLK4 (human) = MYLK4 (human) (UniProt Q86YV6)
# TGFBR1 (human) = TGFBR1 (human) (UniProt P36897)
# TAOK2 (human) = TAOK2 (human) (UniProt Q9UL54)
# MYLK (human) = MYLK (human) (UniProt Q15746)
# TGFBR2 (human) = TGFBR2 (human) (UniProt P37173)
# PAK4 (human) = PAK4 (human) (UniProt O96013)
# MYO3B (human) = MYO3B (human) (UniProt Q8WXR4)
# ICK (human) = ICK (human) (UniProt Q9UPZ9)
# ICK (human), sequence (Q9UPZ9 whole entry, looked up): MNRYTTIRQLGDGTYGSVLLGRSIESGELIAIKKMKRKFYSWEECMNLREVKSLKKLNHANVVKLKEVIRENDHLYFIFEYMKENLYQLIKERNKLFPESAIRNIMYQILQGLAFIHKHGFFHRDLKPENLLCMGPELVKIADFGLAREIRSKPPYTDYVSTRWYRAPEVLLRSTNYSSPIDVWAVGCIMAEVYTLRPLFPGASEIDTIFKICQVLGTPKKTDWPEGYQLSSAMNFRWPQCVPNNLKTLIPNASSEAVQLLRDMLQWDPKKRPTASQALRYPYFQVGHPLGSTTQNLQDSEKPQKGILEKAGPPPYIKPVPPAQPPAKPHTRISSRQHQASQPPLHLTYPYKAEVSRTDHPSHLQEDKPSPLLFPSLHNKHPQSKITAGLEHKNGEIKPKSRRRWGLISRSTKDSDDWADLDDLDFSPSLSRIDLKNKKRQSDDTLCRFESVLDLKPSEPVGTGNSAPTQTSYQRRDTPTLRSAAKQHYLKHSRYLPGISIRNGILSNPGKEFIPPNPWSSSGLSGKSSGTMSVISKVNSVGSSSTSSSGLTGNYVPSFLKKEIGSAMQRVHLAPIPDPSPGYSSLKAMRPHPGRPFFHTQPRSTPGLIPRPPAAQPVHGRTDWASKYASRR
# FGR (human) = FGR (human) (UniProt P09769)
# MST1R (human) = MST1R (human) (UniProt Q04912)
# ULK1 (human) = ULK1 (human) (UniProt O75385)
# STK38 (human) = STK38 (human) (UniProt Q15208)
# ERBB2 (human) = ERBB2 (human) (UniProt P04626)
# MUSK (human) = MUSK (human) (UniProt O15146)
# [3] = system: EGFR (human), P00533 [G719C]
# ROCK2 (human) = ROCK2 (human) (UniProt O75116)
# MAPK3 (human) = MAPK3 (human) (UniProt P27361)
# FRK (human) = FRK (human) (UniProt P42685)
# MAP4K4 (human) = MAP4K4 (human) (UniProt O95819)
# MAP4K4 (human), sequence (O95819 whole entry, looked up): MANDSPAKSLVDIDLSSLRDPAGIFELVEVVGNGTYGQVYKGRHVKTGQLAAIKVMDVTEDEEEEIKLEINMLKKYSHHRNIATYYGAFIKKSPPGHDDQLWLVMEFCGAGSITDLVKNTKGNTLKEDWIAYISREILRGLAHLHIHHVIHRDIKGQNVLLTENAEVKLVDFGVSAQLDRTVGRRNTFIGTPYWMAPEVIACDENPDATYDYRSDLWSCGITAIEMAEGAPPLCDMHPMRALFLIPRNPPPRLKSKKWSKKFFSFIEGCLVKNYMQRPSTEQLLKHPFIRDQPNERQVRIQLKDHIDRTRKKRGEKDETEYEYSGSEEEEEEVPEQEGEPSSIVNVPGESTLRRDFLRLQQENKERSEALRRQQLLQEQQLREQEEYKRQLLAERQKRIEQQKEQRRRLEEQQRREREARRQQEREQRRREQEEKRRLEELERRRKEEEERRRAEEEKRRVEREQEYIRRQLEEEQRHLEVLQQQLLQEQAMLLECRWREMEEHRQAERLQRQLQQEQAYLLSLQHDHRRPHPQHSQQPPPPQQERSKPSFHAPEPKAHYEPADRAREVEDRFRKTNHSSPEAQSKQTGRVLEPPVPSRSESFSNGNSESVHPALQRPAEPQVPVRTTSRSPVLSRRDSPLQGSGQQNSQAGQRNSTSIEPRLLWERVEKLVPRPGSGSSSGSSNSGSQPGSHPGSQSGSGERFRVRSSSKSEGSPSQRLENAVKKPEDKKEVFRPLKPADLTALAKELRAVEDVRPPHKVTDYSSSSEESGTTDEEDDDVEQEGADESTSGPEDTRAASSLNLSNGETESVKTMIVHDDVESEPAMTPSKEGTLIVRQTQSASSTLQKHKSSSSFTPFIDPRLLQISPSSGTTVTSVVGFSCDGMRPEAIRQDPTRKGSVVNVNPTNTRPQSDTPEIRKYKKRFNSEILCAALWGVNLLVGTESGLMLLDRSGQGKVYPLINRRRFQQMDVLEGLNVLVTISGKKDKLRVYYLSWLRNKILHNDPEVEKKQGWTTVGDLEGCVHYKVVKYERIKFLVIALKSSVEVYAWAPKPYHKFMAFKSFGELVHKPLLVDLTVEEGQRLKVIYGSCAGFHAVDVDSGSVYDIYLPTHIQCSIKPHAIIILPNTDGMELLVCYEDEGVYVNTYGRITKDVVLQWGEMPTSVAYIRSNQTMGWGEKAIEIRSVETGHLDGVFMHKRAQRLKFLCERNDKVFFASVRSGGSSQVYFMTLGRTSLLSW
# FGFR2 (human) = FGFR2 (human) (UniProt P21802)
# MAST1 (human) = MAST1 (human) (UniProt Q9Y2H9)
# MAP3K2 (human) = MAP3K2 (human) (UniProt Q9Y2U5)
# MAP3K2 (human), sequence (Q9Y2U5 whole entry, looked up): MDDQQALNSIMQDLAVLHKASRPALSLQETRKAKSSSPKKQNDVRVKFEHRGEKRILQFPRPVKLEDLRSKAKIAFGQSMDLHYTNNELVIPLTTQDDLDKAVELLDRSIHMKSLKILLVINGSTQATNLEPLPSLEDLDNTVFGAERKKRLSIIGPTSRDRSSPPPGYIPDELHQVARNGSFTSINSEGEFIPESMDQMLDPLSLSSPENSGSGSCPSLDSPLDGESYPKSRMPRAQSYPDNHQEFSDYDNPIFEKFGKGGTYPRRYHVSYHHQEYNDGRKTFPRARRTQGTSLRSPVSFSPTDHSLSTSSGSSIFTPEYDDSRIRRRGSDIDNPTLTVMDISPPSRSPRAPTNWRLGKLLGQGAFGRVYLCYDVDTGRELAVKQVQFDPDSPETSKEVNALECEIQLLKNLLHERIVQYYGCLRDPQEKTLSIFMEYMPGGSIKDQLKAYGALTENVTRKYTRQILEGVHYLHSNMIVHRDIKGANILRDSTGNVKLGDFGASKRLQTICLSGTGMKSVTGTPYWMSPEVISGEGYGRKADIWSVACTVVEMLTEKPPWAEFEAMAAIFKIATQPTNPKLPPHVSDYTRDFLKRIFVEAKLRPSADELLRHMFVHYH
# IGF1R (human) = IGF1R (human) (UniProt P08069)
# IGF1R (human), sequence (P08069 whole entry, looked up): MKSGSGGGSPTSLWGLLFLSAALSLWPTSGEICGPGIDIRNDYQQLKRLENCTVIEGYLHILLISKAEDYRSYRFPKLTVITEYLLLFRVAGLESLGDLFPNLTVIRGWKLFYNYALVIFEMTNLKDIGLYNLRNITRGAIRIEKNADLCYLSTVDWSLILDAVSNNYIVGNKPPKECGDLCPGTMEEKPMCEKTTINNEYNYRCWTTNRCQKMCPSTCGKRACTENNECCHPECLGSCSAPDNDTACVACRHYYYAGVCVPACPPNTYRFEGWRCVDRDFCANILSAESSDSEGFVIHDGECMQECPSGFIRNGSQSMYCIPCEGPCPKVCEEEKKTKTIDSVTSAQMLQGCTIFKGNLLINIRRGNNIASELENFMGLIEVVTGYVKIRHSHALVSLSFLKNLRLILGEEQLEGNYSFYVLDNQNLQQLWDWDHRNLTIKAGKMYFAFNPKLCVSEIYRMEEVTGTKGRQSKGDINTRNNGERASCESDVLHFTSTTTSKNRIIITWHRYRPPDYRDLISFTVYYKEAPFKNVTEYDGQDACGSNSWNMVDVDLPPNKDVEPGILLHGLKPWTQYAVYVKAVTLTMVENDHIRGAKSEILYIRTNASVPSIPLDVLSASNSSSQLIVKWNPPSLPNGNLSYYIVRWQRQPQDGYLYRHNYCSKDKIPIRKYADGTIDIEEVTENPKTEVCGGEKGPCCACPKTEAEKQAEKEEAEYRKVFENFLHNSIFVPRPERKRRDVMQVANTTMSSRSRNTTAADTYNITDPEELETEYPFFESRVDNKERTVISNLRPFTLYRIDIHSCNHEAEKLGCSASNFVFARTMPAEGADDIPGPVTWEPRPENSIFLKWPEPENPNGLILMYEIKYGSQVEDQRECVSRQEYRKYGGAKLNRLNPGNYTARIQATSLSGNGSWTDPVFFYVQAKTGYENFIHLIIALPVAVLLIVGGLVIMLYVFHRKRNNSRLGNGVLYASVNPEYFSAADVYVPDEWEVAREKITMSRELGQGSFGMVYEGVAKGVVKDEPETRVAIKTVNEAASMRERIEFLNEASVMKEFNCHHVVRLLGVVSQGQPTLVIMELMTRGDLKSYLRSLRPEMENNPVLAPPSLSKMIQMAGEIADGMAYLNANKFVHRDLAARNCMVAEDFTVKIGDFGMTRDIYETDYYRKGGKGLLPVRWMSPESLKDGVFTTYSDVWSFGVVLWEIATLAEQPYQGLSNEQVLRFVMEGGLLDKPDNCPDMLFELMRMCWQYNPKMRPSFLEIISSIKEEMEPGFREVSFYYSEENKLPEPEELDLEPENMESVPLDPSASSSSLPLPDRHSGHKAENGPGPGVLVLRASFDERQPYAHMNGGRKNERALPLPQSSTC
# TRPM6 (human) = TRPM6 (human) (UniProt Q9BX84)
# RPS6KA2 KD2 (human) = RPS6KA2 KD2 (human) (UniProt Q15349)
# RPS6KA2 KD2 (human), sequence (Q15349 whole entry, looked up): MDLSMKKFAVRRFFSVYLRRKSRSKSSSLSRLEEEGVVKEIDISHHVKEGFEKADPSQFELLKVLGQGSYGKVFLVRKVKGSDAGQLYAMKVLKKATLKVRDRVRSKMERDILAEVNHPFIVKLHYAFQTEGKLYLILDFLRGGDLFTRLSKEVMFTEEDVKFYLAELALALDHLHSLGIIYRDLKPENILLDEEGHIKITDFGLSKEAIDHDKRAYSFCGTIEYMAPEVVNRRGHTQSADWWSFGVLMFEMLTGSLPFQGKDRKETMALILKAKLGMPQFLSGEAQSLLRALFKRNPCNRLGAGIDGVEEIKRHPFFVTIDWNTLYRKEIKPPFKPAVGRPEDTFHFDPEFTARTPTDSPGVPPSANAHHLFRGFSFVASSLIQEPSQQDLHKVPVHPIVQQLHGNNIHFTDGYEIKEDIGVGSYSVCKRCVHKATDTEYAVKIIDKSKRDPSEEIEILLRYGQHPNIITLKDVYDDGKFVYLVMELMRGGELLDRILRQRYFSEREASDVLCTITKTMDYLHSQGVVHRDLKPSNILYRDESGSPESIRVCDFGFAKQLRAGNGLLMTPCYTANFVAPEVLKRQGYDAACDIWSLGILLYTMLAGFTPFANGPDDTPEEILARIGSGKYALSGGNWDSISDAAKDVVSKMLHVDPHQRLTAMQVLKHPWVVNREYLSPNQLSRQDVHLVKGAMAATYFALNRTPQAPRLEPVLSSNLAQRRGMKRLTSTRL
# GRK7 (human) = GRK7 (human) (UniProt Q8WTQ7)
# MERTK (human) = MERTK (human) (UniProt Q12866)
Structure (SMILES),"kinase still bound, per cent of control (PTK2B (human))","kinase still bound, per cent of control (PIM2 (human))","kinase still bound, per cent of control [1]","kinase still bound, per cent of control (TXK (human))","kinase still bound, per cent of control (CAMK4 (human))","kinase still bound, per cent of control (NEK2 (human))","kinase still bound, per cent of control (STK10 (human))","kinase still bound, per cent of control (BLK (human))","kinase still bound, per cent of control (PI4KB (human))","kinase still bound, per cent of control (SRMS (human))","kinase still bound, per cent of control (TYRO3 (human))","kinase still bound, per cent of control [2]","kinase still bound, per cent of control (TAOK1 (human))","kinase still bound, per cent of control (MYLK4 (human))","kinase still bound, per cent of control (TGFBR1 (human))","kinase still bound, per cent of control (TAOK2 (human))","kinase still bound, per cent of control (MYLK (human))","kinase still bound, per cent of control (TGFBR2 (human))","kinase still bound, per cent of control (PAK4 (human))","kinase still bound, per cent of control (MYO3B (human))",other results
O=c1[nH]c2ccccc2n1C1CCN(Cc2ccc(-c3nc4cc5[nH]cnc5cc4nc3-c3ccccc3)cc2)CC1,91%,91%,100%,87%,100%,100%,65%,76%,60%,65%,73%,69%,91%,64%,100%,85%,57%,100%,74%,100%,"kinase still bound, per cent of control (ICK (human)): 91%; kinase still bound, per cent of control (FGR (human)): 100%; kinase still bound, per cent of control (MST1R (human)): 100%; kinase still bound, per cent of control (ULK1 (human)): 78%; kinase still bound, per cent of control (STK38 (human)): 62%; kinase still bound, per cent of control (ERBB2 (human)): 86%; kinase still bound, per cent of control (MUSK (human)): 100%; kinase still bound, per cent of control [3]: 53%; kinase still bound, per cent of control (ROCK2 (human)): 73%; kinase still bound, per cent of control (MAPK3 (human)): 100%; kinase still bound, per cent of control (FRK (human)): 100%; kinase still bound, per cent of control (MAP4K4 (human)): 80% and 100%; kinase still bound, per cent of control (FGFR2 (human)): 100%; kinase still bound, per cent of control (MAST1 (human)): 100%; kinase still bound, per cent of control (MAP3K2 (human)): 100%; kinase still bound, per cent of control (IGF1R (human)): 100%; kinase still bound, per cent of control (TRPM6 (human)): 87%; kinase still bound, per cent of control (RPS6KA2 KD2 (human)): 100%; kinase still bound, per cent of control (GRK7 (human)): 98%; kinase still bound, per cent of control (MERTK (human)): 95%"
C=CC(=O)Nc1ccc(C(=O)c2sc(Nc3ccc(N4CCN(C)CC4)cc3OC)nc2N)cc1,42%,100%,70%,100%,100%,100%,100%,100%,18%,66%,100%,100%,32%,66%,96%,20%,8.6%,100%,95%,83%,"kinase still bound, per cent of control (ICK (human)): 32%; kinase still bound, per cent of control (FGR (human)): 91%; kinase still bound, per cent of control (MST1R (human)): 100%; kinase still bound, per cent of control (ULK1 (human)): 5.1%; kinase still bound, per cent of control (STK38 (human)): 67%; kinase still bound, per cent of control (ERBB2 (human)): 77%; kinase still bound, per cent of control (MUSK (human)): 100%; kinase still bound, per cent of control [3]: 3%; kinase still bound, per cent of control (ROCK2 (human)): 24%; kinase still bound, per cent of control (MAPK3 (human)): 100%; kinase still bound, per cent of control (FRK (human)): 48%; kinase still bound, per cent of control (MAP4K4 (human)): 38%; kinase still bound, per cent of control (FGFR2 (human)): 49%; kinase still bound, per cent of control (MAST1 (human)): 0%; kinase still bound, per cent of control (MAP3K2 (human)): 68%; kinase still bound, per cent of control (IGF1R (human)): 86%; kinase still bound, per cent of control (TRPM6 (human)): 35%; kinase still bound, per cent of control (RPS6KA2 KD2 (human)): 0.25%; kinase still bound, per cent of control (GRK7 (human)): 100%; kinase still bound, per cent of control (MERTK (human)): 100%"
